{
  "source": "patent US20220242851A1",
  "about": "“CRYSTAL FORM AND SALT OF QUINAZOLINE COMPOUND AND PREPARATION METHOD THEREOF” (SHENZHEN JINRUI FOUNDATION BIOTECH CO., LTD, priority 2019, published 2022)",
  "key": {"[1]": {"test_system": "OE21 cell", "test": "Inhibition of cell proliferation, Cell-Titer-Glo, OE21", "format": "cell-based, human", "conditions": "conclusion", "excerpt": "Purpose of the assay: the inhibitory activity of the assay compounds on cell proliferation was detected. Principle of the assay: the luciferase in a Cell-Titer-Glo reagent produces oxidized luciferin with luciferin, oxygen and ATP as reaction substrates, and releases energy in the form of light. Since the luciferase reaction requires ATP, the total amount of light generated by the reaction is proportional to the total amount of ATP that reflects cell viability. Cell line: NCI-N87 cell line (ATCC-CRL-5822), BT-474 cell line (ATCC-HTB-20), OE21 (ECACC-96062201) Cell culture medium: […] L-[…]×, Gibco#25030-081; penicillin-streptomycin Hyclone# SV30010) Cell Titer-Glo® cell viability assay kit with luminescence (Promega #G7573) 384-well cell culture plate (Greiner # 781090) Compound plate (LABCYTE # LP-0200) CO2 incubator (Thermo#371) Vi-cell cell counter (Beckman Coulter) According to the schematic diagram of the cell seed plate, cells were seeded in a 384- or 96-well plate at a density of 1000 cells per well and 25 μL per well, and 25 μL of PBS was added to the wells near edge of the place where no cells were seeded. (1) The stock solution of the compounds has a concentration of 10 mM, and the compounds were diluted with DMSO to an initial concentration of 4 mM. […] After 10 minutes, the plate was read on PerkinElmer Envision, and the […] reading time was set to 0.2 second."}, "[2]": {"test_system": "OE19 cells", "test": "CTG assay of OE19 cells", "format": "cell-based", "conditions": "conclusion", "protocol": "OE19 cells with saturation of 80%-90% were digested with trypsin, centrifuged, resuspended and counted. The concentration of cells was adjusted to […]. OE19 cells were added to a 96-well cell culture plate to 8000 OE19 cells per well. The cells were cultured in a cell incubator containing 5% CO2 at 37° C. overnight.\nThe stock solution of the assay compounds was serially 3-fold diluted with DMSO to a total of 10 concentrations. Before the start of the assay, the serially diluted assay compounds were further diluted to 10×compound solutions (the highest concentration of 100 μM containing 1% DMSO) with cell culture medium under sterile conditions. The prepared 10×compound solutions were added to the cell culture plate with 10 μL per well. […]\nAfter 72 hours of cell culture, the 96-well cell culture plate was taken out. […] The cell plate was placed in Envision for reading.\nThe inhibition rate was calculated according to original data as follows: […]\nNon-linear regression analysis was performed using the processed data and GraphPad Prism 6 analysis software to obtain a dose-response curve, and the half-inhibitory concentration (IC50) of the assay compounds on OE19 cells was calculated."}, "[3]": {"test_system": "subcutaneous xenograft tumor of human gastric cancer NCI-N87 cells", "test": "In vivo pharmacodynamics, NCI-N87 subcutaneous xenograft (Assay Example 4)", "parameters": "species or system mouse", "conditions": "0.5 mg/kg, compared with the vehicle control group", "protocol": "Purpose of the assay: in vivo efficacy of the assay compound disclosed herein on subcutaneous xenograft tumor of human gastric cancer NCI-N87 cells in a BALB/c nude mouse model was evaluated.\nAnimals of the assay: female BALB/c nude mice, 6-8 weeks old, weighted 18-22 grams; supplier: shanghai sippr bk laboratory animals Ltd.\nHuman gastric cancer NCI-N87 cells were cultured in monolayer in vitro. The culture conditions were RPMI-1640 medium plus 10% fetal bovine serum, 100 U/mL penicillin, 100 μg/mL streptomycin, 37° C., 5% CO2. The passaging was performed by conventional digestion with trypsin-EDTA twice a week. When the cell saturation was 80%-90%, the cells were collected, counted and inoculated.\n0.2 mL (10×10^6) of NCI-N87 cells (PBS+Matrigel, 1:1) were inoculated subcutaneously on the right back of each mouse. […]\nThe assay index was to investigate whether tumor growth is inhibited, delayed or cured. Tumor diameter was measured twice a week with a vernier caliper. […]\nThe antitumor efficacy of the compounds was evaluated by TGI (%) or tumor proliferation rate T/C (%). […]\nStatistical analysis included the mean and standard error of mean (SEM) of tumor volume at each time point in each group (See Table 14 for specific data). […] The comparison between groups was analyzed by T-test, and the comparison among three or more groups was analyzed by one-way ANOVA. […]"}},
  "data": [
    {"smiles": "C=CC(=O)N1[C@@H]2CC[C@H]1C[C@H](Nc1cc3c(Nc4ccc(Cl)c(Cl)c4F)ncnc3cc1OC)C2", "note": "[Compound of formula (I)]", "values": [
      {"measurement": "inhibitory activity on the proliferation of OE21 cells (in words)", "setting": "[1]", "result": "significant inhibitory activity"},
      {"measurement": "inhibitory activity on the proliferation of OE19 cells (in words)", "setting": "[2]", "result": "significant inhibitory activity"},
      {"measurement": "tumor inhibitory effect (in words)", "setting": "[3]", "result": "significant tumor inhibitory effect"}
    ]}
  ]
}
